Data as given in PubChem BioAssay (NCI).
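Dose response: 5 concentrations. Exposure: 48 h. Format: 96-well plates. Endpoint: linear interpolation; highest concentration if not reached. The concentration for full growth arrest is given as TGI.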

Assays:
Assay in all cases: NCI tumour cell line growth inhibition, 48 h
KM12 colon = tested on: KM12 colon
KM20L2 colon = tested on: KM20L2 colon
CAKI-1 renal = tested on: CAKI-1 renal
EKVX NSCLC = tested on: EKVX NSCLC
A498 renal = tested on: A498 renal
MDA-MB-231 breast = tested on: MDA-MB-231 breast
LOX IMVI melanoma = tested on: LOX IMVI melanoma
NCI/ADR-RES ovarian = tested on: NCI/ADR-RES ovarian
MOLT-4 leukemia = tested on: MOLT-4 leukemia
NCI-H226 lung = tested on: NCI-H226 lung
SF-295 CNS = tested on: SF-295 CNS
MDA-MB-435 = tested on: MDA-MB-435
M14 melanoma = tested on: M14 melanoma
HCC-2998 colon = tested on: HCC-2998 colon
HOP-62 NSCLC = tested on: HOP-62 NSCLC
UACC-257 melanoma = tested on: UACC-257 melanoma
SNB-19 CNS = tested on: SNB-19 CNS
COLO 205 colon = tested on: COLO 205 colon
CCRF-CEM leukemia = tested on: CCRF-CEM leukemia
XF 498 CNS = tested on: XF 498 CNS
K-562 leukemia = tested on: K-562 leukemia
SK-MEL-5 melanoma = tested on: SK-MEL-5 melanoma
PC-3 prostate = tested on: PC-3 prostate
SNB-78 CNS = tested on: SNB-78 CNS
DLD-1 colon = tested on: DLD-1 colon
OVCAR-8 ovarian = tested on: OVCAR-8 ovarian
DMS 114 small cell lung = tested on: DMS 114 small cell lung
SK-MEL-2 melanoma = tested on: SK-MEL-2 melanoma
DMS 273 small cell lung = tested on: DMS 273 small cell lung
UACC-62 melanoma = tested on: UACC-62 melanoma
HOP-92 NSCLC = tested on: HOP-92 NSCLC
UO-31 renal = tested on: UO-31 renal
SK-MEL-28 melanoma = tested on: SK-MEL-28 melanoma
OVCAR-3 ovarian = tested on: OVCAR-3 ovarian
BT-549 breast = tested on: BT-549 breast
NCI-H460 lung = tested on: NCI-H460 lung
OVCAR-4 ovarian = tested on: OVCAR-4 ovarian
NCI-H522 lung = tested on: NCI-H522 lung
SR leukemia = tested on: SR leukemia
A549 NSCLC = tested on: A549 NSCLC
HL-60(TB) leukemia = tested on: HL-60(TB) leukemia
RPMI-8226 leukemia = tested on: RPMI-8226 leukemia
HS 578T breast = tested on: HS 578T breast
LXFL 529 NSCLC = tested on: LXFL 529 NSCLC
786-0 renal = tested on: 786-0 renal
DU-145 prostate = tested on: DU-145 prostate
ACHN renal = tested on: ACHN renal
M19-MEL melanoma = tested on: M19-MEL melanoma
SW-620 colon = tested on: SW-620 colon
U251 CNS = tested on: U251 CNS
RXF 393 renal = tested on: RXF 393 renal
HT29 colon = tested on: HT29 colon
SN12C renal = tested on: SN12C renal
SNB-75 CNS = tested on: SNB-75 CNS
MDA-N = tested on: MDA-N
NCI-H23 lung = tested on: NCI-H23 lung
HOP-18 NSCLC = tested on: HOP-18 NSCLC
T-47D breast = tested on: T-47D breast
SF-539 CNS = tested on: SF-539 CNS
IGROV1 ovarian = tested on: IGROV1 ovarian
SK-OV-3 ovarian = tested on: SK-OV-3 ovarian
OVCAR-5 ovarian = tested on: OVCAR-5 ovarian
MCF7 breast = tested on: MCF7 breast
TK-10 renal = tested on: TK-10 renal
HCT-15 colon = tested on: HCT-15 colon
SF-268 CNS = tested on: SF-268 CNS
MALME-3M melanoma = tested on: MALME-3M melanoma
HCT-116 colon = tested on: HCT-116 colon
RXF-631 renal = tested on: RXF-631 renal

Measured: TGI

CC1OC(=O)C2CC3CCCCC3C(/C=C/C3CCCC(C)N3C)C12 (stereo not drawn)
> 68.1 µM: SF-295 CNS
> 52.8 µM: SNB-78 CNS
not listed: RXF-631 renal
> 100 µM: all other assays above

O=C(CC1(O)C(=O)Nc2ccc([N+](=O)[O-])cc21)c1ccc2ccccc2c1 (stereo not drawn)
not listed: CAKI-1 renal | MDA-MB-231 breast | LOX IMVI melanoma | NCI/ADR-RES ovarian | MDA-MB-435 | XF 498 CNS | SK-MEL-5 melanoma | PC-3 prostate | HOP-92 NSCLC | BT-549 breast | HS 578T breast | DU-145 prostate | MDA-N | HOP-18 NSCLC | T-47D breast | MCF7 breast
> 100 µM: all other assays above

Cc1cc(C)nc(NS(=O)(=O)c2ccc(NC(=O)c3cccc4c(Nc5ccc(S(=O)(=O)N=C(N)N)cc5)c5ccc(Cl)cc5nc34)cc2)n1
35.4 µM: HCT-116 colon
32.2 µM: 786-0 renal
43.5 µM: HCC-2998 colon
60.8 µM: MOLT-4 leukemia
39.8 µM: NCI-H522 lung
43.3 µM: LOX IMVI melanoma
31.4 µM: U251 CNS
43.2 µM: DLD-1 colon
63 µM: RPMI-8226 leukemia
36.5 µM: RXF 393 renal
80.5 µM: SR leukemia
73.7 µM: SF-539 CNS
59.9 µM: UACC-257 melanoma
53.3 µM: SNB-19 CNS
53 µM: SF-295 CNS
52.2 µM: OVCAR-3 ovarian
not listed: CAKI-1 renal | MDA-MB-231 breast | NCI/ADR-RES ovarian | NCI-H226 lung | MDA-MB-435 | COLO 205 colon | SK-MEL-5 melanoma | PC-3 prostate | SK-MEL-2 melanoma | DMS 273 small cell lung | HOP-92 NSCLC | BT-549 breast | OVCAR-4 ovarian | A549 NSCLC | HL-60(TB) leukemia | HS 578T breast | DU-145 prostate | SW-620 colon | MDA-N | HOP-18 NSCLC | T-47D breast | IGROV1 ovarian | MCF7 breast
> 100 µM: all other assays above

COc1cc([C@@H]2c3cc4c(cc3[C@@H](NC(=O)c3cccc(N)c3)C3COC(=O)[C@@H]32)OCO4)cc(OC)c1O (stereo partly drawn)
7.23 µM: HCC-2998 colon
> 49.3 µM: K-562 leukemia
5.13 µM: SF-295 CNS
2.55 µM: A549 NSCLC
6.18 µM: CAKI-1 renal
26.1 µM: UO-31 renal
> 67.2 µM: DLD-1 colon
36 µM: KM20L2 colon
19.7 µM: HCT-15 colon
8.87 µM: MALME-3M melanoma
2.11 µM: HL-60(TB) leukemia
10.1 µM: SK-MEL-2 melanoma
35 µM: SW-620 colon
> 41.6 µM: IGROV1 ovarian
11.6 µM: SNB-75 CNS
0.0964 µM: HOP-62 NSCLC
12.8 µM: OVCAR-5 ovarian
2.33 µM: MOLT-4 leukemia
> 84.4 µM: SNB-78 CNS
18.5 µM: RXF-631 renal
2.3 µM: 786-0 renal
> 33 µM: CCRF-CEM leukemia
> 20.4 µM: M14 melanoma
2.22 µM: NCI-H23 lung
12.7 µM: LOX IMVI melanoma
> 66.9 µM: OVCAR-4 ovarian
15.6 µM: EKVX NSCLC
12.1 µM: DMS 273 small cell lung
8.08 µM: A498 renal
> 100 µM: UACC-257 melanoma | COLO 205 colon | LXFL 529 NSCLC | M19-MEL melanoma
23.5 µM: RXF 393 renal
18.4 µM: TK-10 renal
31.6 µM: SNB-19 CNS
15.9 µM: HOP-92 NSCLC
0.321 µM: SR leukemia
> 22.9 µM: SK-OV-3 ovarian
> 88.5 µM: SK-MEL-28 melanoma
25 µM: XF 498 CNS
30.2 µM: OVCAR-3 ovarian
14.8 µM: OVCAR-8 ovarian
2.4 µM: ACHN renal
18.1 µM: RPMI-8226 leukemia
1.97 µM: NCI-H460 lung
1.53 µM: SF-539 CNS
15 µM: KM12 colon
13.9 µM: SF-268 CNS
6.16 µM: SK-MEL-5 melanoma
21.3 µM: HT29 colon
3.78 µM: SN12C renal
1.62 µM: NCI-H226 lung
7.94 µM: UACC-62 melanoma
4.51 µM: U251 CNS
> 42.4 µM: HCT-116 colon
